Reference: patent publication US20260297081A1, “COMPOUNDS AND METHODS OF TREATING CANCERS” (Cullgen Inc., priority 2023, published 2026)

Key:
Calu-1 cells = experiment: Anti-proliferation (viability) of NSCLC Calu-1 cells, 3 days (Table 7, FIG. 2B); type: cell-based; conditions: Homo sapiens, 72 h; Calu-1 cells, 3 days, 10-point serial dilution; read-out: GI IC50 in Calu-1
In short: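 Cells were exposed to heterobifunctional compounds across a 10-point serial dilution, for 3 days with Calu-1 and 6 days with T47D. A negative control was included that keeps the DDB1 ligand and linker but carries a modified warhead that impairs CDK4 binding.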

MCF7 cells = experiment: Anti-proliferation (viability) of MCF7 cells (Table 7, FIG. 2B); type: cell-based; conditions: Homo sapiens, MCF7, MCF7 cells, 3-6 days, 10-point serial dilution; read-out: GI IC50 in MCF-7

SMILES	IC50 (Calu-1 cells) [µM]	IC50 (MCF7 cells) [µM]
CC(=O)c1c(C)c2cnc(Nc3ccc(N4CCN(C5CCN(C(=O)[C@H]6CC[C@H](Nc7cc(C(C)C)ccc7C(=O)Nc7ccc(N(C)C)nn7)CC6)C5)CC4)cn3)nc2n(C2CCCC2)c1=O (stereo partly drawn) [CPD-528, 2-((trans-4-(3-(4-(6-((6-acetyl-8-cyclopentyl-5-methyl-7-oxo-7,8-dihydropyrido[2,3-d]pyrimidin-2-yl)amino)pyridin-3-yl)piperazin-1-yl)pyrrolidine-1-carbonyl)cyclohexyl)amino)-N-(6-(dimethylamino)pyridazin-3-yl)-4-isopropylbenzamide]	≤ 0.01	< 0.05
CC(=O)c1c(C)c2cnc(Nc3ccc(CN4CCN(CC(=O)N5CCC(Nc6nc(NC(C)C)ccc6C(=O)Nc6cc7n(n6)CCC7)CC5)CC4)cn3)nc2n(C2CCCC2)c1=O [CPD-530, 2-((1-(2-(4-((6-((6-acetyl-8-cyclopentyl-5-methyl-7-oxo-7,8-dihydropyrido[2,3-d]pyrimidin-2-yl)amino)pyridin-3-yl)methyl)piperazin-1-yl)acetyl)piperidin-4-yl)amino)-N-(5,6-dihydro-4H-pyrrolo[1,2-b]pyrazol-2-yl)-6-(isopropylamino)nicotinamide]	0.01 to 0.05	> 0.1
COc1cccc(NC(=O)c2ccc(NC(C)C)nc2NC2CCN(C(=O)CN3CCN(Cc4ccc(Nc5ncc6c(C)c(C(C)=O)c(=O)n(C7CCCC7)c6n5)nc4)CC3)CC2)n1 [CPD-533]	≤ 0.01	0.05 to 0.1
CC(=O)c1c(C)c2cnc(Nc3ccc(N4CCN(C5CCN(C(=O)C67CC(Nc8nc(NC(C)C)ccc8C(=O)Nc8ccc(N(C)C)nn8)(C6)C7)C5)CC4)cn3)nc2n(C2CCCC2)c1=O (centres unmarked) [CPD-534, 2-((3-(3-(4-(6-((6-acetyl-8-cyclopentyl-5-methyl-7-oxo-7,8-dihydropyrido[2,3-d]pyrimidin-2-yl)amino)pyridin-3-yl)piperazin-1-yl)pyrrolidine-1-carbonyl)bicyclo[1.1.1]pentan-1-yl)amino)-N-(6-(dimethylamino)pyridazin-3-yl)-6-(isopropylamino)nicotinamide]	≤ 0.01	< 0.05
CC(C)Nc1ccc(C(=O)Nc2ccc(N(C)C)nn2)c(NC2CCC(C(=O)N3CCC(N4CCN(c5ccc(Nc6ncc7ccc(=O)n(C8CCCC8)c7n6)nc5)CC4)C3)CC2)n1 (centres unmarked) [CPD-535, 2-((4-(3-(4-(6-((8-cyclopentyl-7-oxo-7,8-dihydropyrido[2,3-d]pyrimidin-2-yl)amino)pyridin-3-yl)piperazin-1-yl)pyrrolidine-1-carbonyl)cyclohexyl)amino)-N-(6-(dimethylamino)pyridazin-3-yl)-6-(isopropylamino)nicotinamide]	0.01 to 0.05	0.05 to 0.1
CC(=O)c1c(C)c2cnc(Nc3ccc(CN4CCN(C(=O)CN5CC6(CC(Nc7nc(NC(C)C)ccc7C(=O)Nc7ccc(N(C)C)nn7)C6)C5)CC4)cn3)nc2n(C2CCCC2)c1=O [CPD-538, 2-((2-(2-(4-((6-((6-acetyl-8-cyclopentyl-5-methyl-7-oxo-7,8-dihydropyrido[2,3-d]pyrimidin-2-yl)amino)pyridin-3-yl)methyl)piperazin-1-yl)-2-oxoethyl)-2-azaspiro[3.3]heptan-6-yl)amnion)-N-(6-(dimethylamino)pyridazin-3-yl)-6-(isopropylamino)nicotinamide]	≤ 0.01	0.05 to 0.1
CC(=O)c1c(C)c2cnc(Nc3ccc(CN4CCN(C(=O)CN5CCC(Nc6nc(NC(C)C)ccc6C(=O)Nc6ccc(N(C)C)nn6)CC5)CC4)cn3)nc2n(C2CCCC2)c1=O [CPD-541, 2-((1-(2-(4-((6-((6-acetyl-8-cyclopentyl-5-methyl-7-oxo-7,8-dihydropyrido[2,3-d]pyrimidin-2-yl)amino)pyridin-3-yl)methyl)piperazin-1-yl)-2-oxoethyl)piperidin-4-yl)amino)-N-(6-(dimethylamino)pyridazin-3-yl)-6-(isopropylamino)nicotinamide]	≤ 0.01	< 0.05
CC(=O)c1c(C)c2cnc(Nc3ccc(N4CCC(N5CCC[C@H]5C(=O)NCC5CC(Nc6nc(NC(C)C)ccc6C(=O)Nc6ccc(N(C)C)nn6)C5)CC4)cn3)nc2n(C2CCCC2)c1=O (stereo partly drawn) [CPD-542, (S)-2-((3-((1-(1-(6-((6-acetyl-8-cyclopentyl-5-methyl-7-oxo-7,8-dihydropyrido[2,3-d]pyrimidin-2-yl)amino)pyridin-3-yl)piperidin-4-yl)pyrrolidine-2-carboxamido)methyl)cyclobutyl)amino)-N-(6-(dimethylamino)pyridazin-3-yl)-6-(isopropylamino)nicotinamide]	≤ 0.01	> 0.1
CC(=O)c1c(C)c2cnc(Nc3ccc(N4CCC(N5CCC[C@H]5C(=O)NC5CC6(C5)CC(Nc5nc(NC(C)C)ccc5C(=O)Nc5ccc(N(C)C)nn5)C6)CC4)cn3)nc2n(C2CCCC2)c1=O (stereo partly drawn) [CPD-543, (S)-2-((6-(1-(1-(6-((6-acetyl-8-cyclopentyl-5-methyl-7-oxo-7,8-dihydropyrido[2,3-d]pyrimidin-2-yl)amino)pyridin-3-yl)piperidin-4-yl)pyrrolidine-2-carboxamido)spiro[3.3]heptan-2-yl)amino)-N-(6-(dimethylamino)pyridazin-3-yl)-6-(isopropylamino)nicotinamide]	≤ 0.01	< 0.05
CC(=O)c1c(C)c2cnc(Nc3ccc(N4CCC(N5CCC[C@H]5C(=O)N5CC6(CC(Nc7nc(NC(C)C)ccc7C(=O)Nc7ccc(N(C)C)nn7)C6)C5)CC4)cn3)nc2n(C2CCCC2)c1=O [CPD-544, 2-((2-((1-(6-((6-acetyl-8-cyclopentyl-5-methyl-7-oxo-7,8-dihydropyrido[2,3-d]pyrimidin-2-yl)amino)pyridin-3-yl)piperidin-4-yl)-L-prolyl)-2-azaspiro[3.3]heptan-6-yl)amino)-N-(6-(dimethylamino)pyridazin-3-yl)-6-(isopropylamino)nicotinamide]	≤ 0.01	< 0.05
CC(=O)c1c(C)c2cnc(Nc3ccc(N4CCN(C5CCN(C(=O)N6CC7(CCC(Nc8nc(NC(C)C)ccc8C(=O)Nc8ccc(N(C)C)nn8)C7)C6)C5)CC4)cn3)nc2n(C2CCCC2)c1=O (centres unmarked) [CPD-545, 2-((2-(3-(4-(6-((6-acetyl-8-cyclopentyl-5-methyl-7-oxo-7,8-dihydropyrido[2,3-d]pyrimidin-2-yl)amino)pyridin-3-yl)piperazin-1-yl)pyrrolidine-1-carbonyl)-2-azaspiro[3.4]octan-6-yl)amino)-N-(6-(dimethylamino)pyridazin-3-yl)-6-(isopropylamino)nicotinamide]	0.01 to 0.05	> 0.1
CC(=O)c1c(C)c2cnc(Nc3ccc(CN4CCN(CC(=O)N5CCC6(CCC(Nc7nc(NC(C)C)ccc7C(=O)Nc7cc(C)n(C)n7)C6)C5)CC4)cn3)nc2n(C2CCCC2)c1=O (centres unmarked) [CPD-547, 2-((2-(2-(4-((6-((6-acetyl-8-cyclopentyl-5-methyl-7-oxo-7,8-dihydropyrido[2,3-d]pyrimidin-2-yl)amino)pyridin-3-yl)methyl)piperazin-1-yl)acetyl)-2-azaspiro[4.4]nonan-7-yl)amino)-N-(1,5-dimethyl-1H-pyrazol-3-yl)-6-(isopropylamino)nicotinamide]	≤ 0.01	< 0.05
CC(=O)c1c(C)c2cnc(Nc3ccc(CN4CCN(CC(=O)N5CCC6(CCC(Nc7nc(NC(C)C)ccc7C(=O)Nc7cn(C)c(C8CC8)n7)C6)C5)CC4)cn3)nc2n(C2CCCC2)c1=O (centres unmarked) [CPD-548, 2-((2-(2-(4-((6-((6-acetyl-8-cyclopentyl-5-methyl-7-oxo-7,8-dihydropyrido[2,3-d]pyrimidin-2-yl)amino)pyridin-3-yl)methyl)piperazin-1-yl)acetyl)-2-azaspiro[4.4]nonan-7-yl)amino)-N-(2-cyclopropyl-1-methyl-1H-imidazol-4-yl)-6-(isopropylamino)nicotinamide]	≤ 0.01	< 0.05
CC(=O)c1c(C)c2cnc(Nc3ccc(CN4CCN(CC(=O)N5CCC6(CCC(Nc7nc(NC(C)C)ccc7C(=O)Nc7cc8n(n7)CCC8)C6)C5)CC4)cn3)nc2n(C2CCCC2)c1=O (centres unmarked) [CPD-549, 2-((2-(2-(4-((6-((6-acetyl-8-cyclopentyl-5-methyl-7-oxo-7,8-dihydropyrido[2,3-d]pyrimidin-2-yl)amino)pyridin-3-yl)methyl)piperazin-1-yl)acetyl)-2-azaspiro[4.4]nonan-7-yl)amino)-N-(5,6-dihydro-4H-pyrrolo[1,2-b]pyrazol-2-yl)-6-(isopropylamino)nicotinamide]	≤ 0.01	< 0.05
CC(=O)c1c(C)c2cnc(Nc3ccc(N4CCN(C5CCN(C(=O)[C@H]6CC[C@H](Nc7nc(NC(C)C)ccc7-c7nc8cnc(N(C)C)cc8[nH]7)CC6)C5)CC4)cn3)nc2n(C2CCCC2)c1=O (stereo partly drawn) [CPD-552, trans-6-acetyl-8-cyclopentyl-2-((5-(4-(1-(trans-4-((3-(6-(dimethylamino)-3H-imidazo[4,5-c]pyridin-2-yl)-6-(isopropylamino)pyridin-2-yl)amino)cyclohexane-1-carbonyl)pyrrolidin-3-yl)piperazin-1-yl)pyridin-2-yl)amino)-5-methylpyrido[2,3-d]pyrimidin-7(8H)-one]	≥ 0.05	> 0.1
CCN1CCc2cc(-c3nc(Nc4ccc(CN5CCN(CC(=O)N6CC7(CC(Nc8nc(NC(C)C)ccc8C(=O)Nc8ccc(N(C)C)nn8)C7)C6)CC5)cn4)ncc3F)ccc2C1=O [CPD-553, N-(6-(dimethylamino)pyridazin-3-yl)-2-((2-(2-(4-((6-((4-(2-ethyl-1-oxo-1,2,3,4-tetrahydroisoquinolin-6-yl)-5-fluoropyrimidin-2-yl)amino)pyridin-3-yl)methyl)piperazin-1-yl)acetyl)-2-azaspiro[3.3]heptan-6-yl)amino)-6-(isopropylamino)nicotinamide]	≥ 0.05	> 0.1
